Four compounds from PMC7006680, “Sulfocoumarins as dual inhibitors of human carbonic anhydrase isoforms IX/XII and of human thioredoxin reductase” (Journal of Enzyme Inhibition and Medicinal Chemistry, 2020) can be followed below.

A value given as a limit tells only on which side of the number the result lay.

One experiment addresses T1, hCA II (Homo sapiens, UniProt P00918).
T1 construct: made in house
The experiment is described as follows: Stopped-flow CO2 hydration CA inhibition assay, hCA II. It counts as biochemical. The note with it: recombinant enzyme, 15 min pre-incubation.

In a further experiment the target is T2, TrxR (Homo sapiens, UniProt Q16881).
T2 sequence (Q16881 1-649): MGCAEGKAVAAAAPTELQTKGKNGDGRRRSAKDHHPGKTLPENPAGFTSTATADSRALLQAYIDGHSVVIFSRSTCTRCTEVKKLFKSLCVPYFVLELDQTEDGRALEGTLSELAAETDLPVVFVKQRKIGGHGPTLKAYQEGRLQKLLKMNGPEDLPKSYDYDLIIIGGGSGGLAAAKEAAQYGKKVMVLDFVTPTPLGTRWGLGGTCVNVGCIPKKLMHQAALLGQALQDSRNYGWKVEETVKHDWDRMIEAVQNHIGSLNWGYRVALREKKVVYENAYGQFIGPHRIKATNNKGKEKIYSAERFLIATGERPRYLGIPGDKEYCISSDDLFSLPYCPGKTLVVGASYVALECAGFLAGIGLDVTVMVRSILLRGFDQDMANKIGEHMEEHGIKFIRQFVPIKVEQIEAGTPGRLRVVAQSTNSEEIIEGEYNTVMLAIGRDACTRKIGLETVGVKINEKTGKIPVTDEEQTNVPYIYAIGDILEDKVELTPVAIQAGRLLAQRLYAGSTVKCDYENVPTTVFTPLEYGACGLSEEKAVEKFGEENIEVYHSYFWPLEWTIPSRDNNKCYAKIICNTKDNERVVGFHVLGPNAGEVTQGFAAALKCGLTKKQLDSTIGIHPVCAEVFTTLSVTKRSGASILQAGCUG
The experiment is described as follows: TrxR activity by DTNB reduction assay in SHSY5Y cell lysate. It counts as biochemical.

The target in a further experiment is T3, hCA I (Homo sapiens, UniProt P00915).
T3 construct: made in house
As to the kind of experiment: Stopped-flow CO2 hydration CA inhibition assay, hCA I. The following applies: recombinant enzyme, 15 min pre-incubation. It counts as biochemical.

Experiment [1] concerns MCF-7 (breast adenocarcinoma). The experiment is described as follows: MTT cytotoxicity assay, MCF-7. It counts as cell-based, human.
Description: (§1) About 2000–4000 cells per well (depending on line nature) were placed in 96-well plates and after 24 h compounds were added to the wells. Untreated cells were used as a control. The plates were incubated for 48 h, 37 °C, and 5% CO2. The number of surviving cells was determined using 3-(4,5-dimethylthiazol-2-yl)-2,5-diphenyltetrazolinium bromide (MTT). MTT-test: after incubating culture medium was removed and 200 µL fresh medium with 20 µL MTT (2 mg/mL in HBSS) was added in each well of the plate. After incubation (3 h, 37 °C, 5% CO2), the medium with MTT was removed and 200 µL DMSO were added at once to each sample. The samples were tested at 540 nm on Thermo Scientific Multiskan EX microplate photometer. The half-maximal inhibitory concentration (IC50) of each compound was calculated using Graph Pad Prism® 3.0 (GraphPad Software, La Jolla, CA).
The subject of experiment [2] is HT-1080 (human fibrosarcoma). The experiment is described as follows: MTT cytotoxicity assay, HT-1080. It counts as cell-based.
Description: as §1
The subject of experiment [3] is SHSY5Y (human neuroblastoma). The experiment is described as follows: MTT cytotoxicity assay, SHSY5Y. It counts as cell-based. The note with it: 48 h incubation.
Description: as §1
The target in the next experiment is T4, hCA IX (Homo sapiens, UniProt Q16790).
T4 construct: made in house
The experiment is described as follows: Stopped-flow CO2 hydration CA inhibition assay, hCA IX. Format: biochemical. The note with it: recombinant enzyme, 15 min pre-incubation.

The next experiment has as its target T5, hCA XII (Homo sapiens, UniProt O43570).
T5 construct: made in house
The experiment is described as follows: Stopped-flow CO2 hydration CA inhibition assay, hCA XII. Format: biochemical. The note with it: recombinant enzyme, 15 min pre-incubation.

Where [4] appears, read: Homo sapiens, MCF7, 48 h incubation.
Setting [5] is: Homo sapiens, HT-1080, 48 h incubation.

T5 sequence (O43570 25-354): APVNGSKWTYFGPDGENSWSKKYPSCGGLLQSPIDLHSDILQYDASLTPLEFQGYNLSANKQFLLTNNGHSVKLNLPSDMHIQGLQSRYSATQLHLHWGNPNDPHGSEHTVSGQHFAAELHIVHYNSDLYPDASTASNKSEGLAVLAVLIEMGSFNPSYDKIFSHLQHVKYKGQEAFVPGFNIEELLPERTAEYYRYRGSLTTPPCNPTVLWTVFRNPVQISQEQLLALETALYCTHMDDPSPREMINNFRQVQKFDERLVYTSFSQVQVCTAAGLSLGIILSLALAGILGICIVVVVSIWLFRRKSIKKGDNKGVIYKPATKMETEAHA
T3 sequence (P00915 whole entry): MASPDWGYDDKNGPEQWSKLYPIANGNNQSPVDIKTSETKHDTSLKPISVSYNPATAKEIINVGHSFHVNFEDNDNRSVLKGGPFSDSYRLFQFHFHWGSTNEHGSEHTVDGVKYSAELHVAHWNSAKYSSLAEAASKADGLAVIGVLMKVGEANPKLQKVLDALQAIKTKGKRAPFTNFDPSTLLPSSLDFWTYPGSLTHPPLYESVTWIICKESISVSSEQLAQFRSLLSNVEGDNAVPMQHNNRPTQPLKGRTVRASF
Description for TrxR: Determination of TrxR activity in SHSY5Y cell lysate. TrxR activity in cell lysate was measured in 96-well plates using previously described methods[27]^,[28]. For TrxR activity measurement, compounds of different concentrations were incubated with 50 µg of cell lysate and 200 µM NADPH in a volume of 100 µL of 50 mM Tris–HCl and 1 mM EDTA, pH 7.5 (TE buffer), for different time points in 96-well plates at room temperature. […] TrxR activity was calculated as a percentage of enzyme activity of that of DMSO vehicle treated sample.
Description for hCA II: (§2) An Applied Photophysics stopped-flow instrument has been used for assaying the CA catalysed CO2 hydration activity[22]. Phenol red (at a concentration of 0.2 mM) has been used as indicator, working at the absorbance maximum of 557 nm, with 20 mM Tris (pH 8.3) as buffer, and 20 mM Na2SO4 (for maintaining constant the ionic strength), following the initial rates of the CA-catalysed CO2 hydration reaction for a period of 10–100 s. The CO2 concentrations ranged from 1.7 to 17 mM for the determination of the kinetic parameters and inhibition constants. […] The uncatalysed rates were determined in the same manner and subtracted from the total observed rates. Stock solutions of inhibitor (0.1 mM) were prepared in distilled-deionised water and dilutions up to 0.005 nM were done thereafter with the assay buffer. Inhibitor and enzyme solutions were pre-incubated together for 15 min at room temperature prior to assay, in order to allow for the formation of the E–I complex. The inhibition constants were obtained by non-linear least-squares methods using PRISM 3 and the Cheng-Prusoff equation, as reported earlier, and represent the mean from at least three different determinations.
Description for hCA IX: as §2
Description for hCA XII: as §2

Regarding “1-(2,2-Dioxido-1,2-benzoxathiin-6-yl)-4-(4-fluorophenyl)-1H-1,2,3-triazole [Compound 1b]”, the Ki at hCA II and at hCA I was over 10 µM in each case. The midpoint of inhibition at TrxR, the IC50, lay at 40 µM.

On to “1-(2,2-Dioxido-1,2-benzoxathiin-6-yl)-5-(4-fluorophenyl)-1H-1,2,3-triazole [Compound 1d]”, for which the IC50 in experiment [1] (48 h incubation) was 50 µM; in experiment [2] (48 h incubation), 7.9 µM; on TrxR it was 125 µM; in experiment [3], 18.5 µM. In addition, the Ki on hCA II and at hCA I was over 10 µM throughout.

For the compound `O=S1(=O)C=Cc2cc(-n3cc(-c4ccc(Cl)cc4)nn3)ccc2O1` [Compound 1a, 4-(4-Chlorophenyl)-1-(2,2-dioxido-1,2-benzoxathiin-6-yl)-1H-1,2,3-triazole], the IC50 in experiment [1] (setting [4]) was 1.8 µM; in experiment [2] (setting [5]), 11 µM; in experiment [3] (Homo sapiens, SH-SY5Y), 22 µM. Moreover, the Ki at hCA IX came to 0.0078 µM; on hCA XII, 0.0177 µM.

Take `O=S1(=O)C=Cc2cc(-c3nnnn3-c3ccccc3)ccc2O1` [Compound 1c, 5-(2,2-Dioxido-1,2-benzoxathiin-6-yl)-1-phenyl-1H-tetrazole]: the IC50 in experiment [1] (setting [4]) amounted to 101 µM; in experiment [2] (setting [5]), 12.3 µM; in experiment [3] (Homo sapiens, SH-SY5Y), 18.4 µM. Also, the values for the Ki at hCA IX and at hCA XII were 0.0085 µM and 0.0071 µM, respectively.
